Measurements from paper PMC9675574 (JCI Insight, 2022).

System: cerulein-induced pancreatitis in T7K24R mice
Assay: Cerulein-induced pancreatitis in T7K24R mice
Assay type: in vivo, mouse
Conditions: single oral gavage 200 mg/kg; 15 treated mice
Method: Pancreatitis was induced in T7K24R mice with 8 hourly intraperitoneal injections of the secretagogue peptide cerulein used in a dose of 50 μg/kg. Cerulein (catalog number C9026, MilliporeSigma) was dissolved in sterile normal saline at 10 μg/mL concentration. Mice were sacrificed 1, 24, 48, 72, or 96 hours from the first cerulein injection, as indicated, and the pancreas and blood were harvested. Details of histological analysis and measurement of plasma amylase (4 μL assayed) were reported previously ([29]–[31]).
Control mice were given gavage of the vehicle solution (Captisol; see below) or regular chow.
Captisol (β-cyclodextrin sulfobutyl ethers, sodium salts, lot number NC-04A-180185) was obtained from Cydex Pharmaceuticals (through Thermo Fisher Scientific) and was dissolved in sterile normal saline (3.5 g in 10 mL). […] The mixture was then compressed into pellets using the barrel of a 10 mL plastic syringe and a plunger. The prodrug-containing pellets were allowed to dry at 24°C for 2 days and stored at 4°C until use.

[H]/N=C(/N)c1ccc(NCc2nc3cc(C(=O)N(CCC(=O)O)c4ccccn4)ccc3n2C)cc1 [dabigatran]
share of mice with limited efficacy (less than 25% of normal acini preserved): 30%
